Reference: US8722661B2, “Pyrrolopyrimidone and pyrrolopyridone inhibitors of tankyrase” (Genentech, Inc., priority 2012, dated 2014)

Key:
Tankyrase 1 (TNKS1) = molecular target: T1, Tankyrase 1 (TNKS1) (Homo sapiens, UniProt O95271); test: μHTS-TNKS-IWR2 TR-FRET binding assay (TNKS1)
T1 construct: construct: 1088-1327, 1266M
Method: (§1) μHTS-TNKS-IWR2TR-FRET Binding Assay
(§2) (10 μL/well in BD1536-well plate, a single point)
Reagents and Stock Solutions
(§3) Biotin-IWR2: 10 mM Biotin-IWR2 stock in DMSO, stored at −20° C.
Assay buffer 1a (AB 1a) for TNKS dilution: 50 mM Tris, pH 7.4, 100 mM sodium chloride solution, 1 mM magnesium chloride solution, 1 mM DL-dithiothreitol solution, 0.2 mg/mL bovine serum albumin solution, 0.025% NP-40.
Assay buffer 1b (AB 1b) for Biotin-IWR2 dilution: 50 mM Tris, pH 7.4, 100 mM sodium chloride solution, 1 mM magnesium chloride solution, 1 mM DL-dithiothreitol solution, 0.2 mg/mL bovine serum albumin solution, 0.05% NP-40
Assay buffer 1c (AB 1c) for compound dilution: 50 mM Tris, pH 7.4, 100 mM sodium chloride solution, 1 mM magnesium chloride solution, 1 mM DL-dithiothreitol solution, 0.2 mg/mL bovine serum albumin solution
Assay buffer 2 (AB2) for Eu/APC: 50 mM Tris, pH 7.4, 100 mM sodium chloride solution, 1 mM magnesium chloride solution, 0.2 mg/mL bovine serum albumin solution
Reagent Stock Solution Preparation
Prepare BLANK well stock solution: 5% DMSO/AB1b buffer
Prepare TNKS1 stock solution (5× stock): 300 nM TNKS in AB1a buffer
(§4) Transfer 3 μL/well above solution (solution 1,2,3) to an empty assay plate (BD1536-well plate) as follows:
TOTL and cpd wells: Solution 1 (Biotin-IWR2):
BLNK wells: Solution 2 (No Biotin-IWR2):
POSITIVE CONTROL wells: Solution 3 (Biotin-IWR2+XAV939)
(§5) Transfer 3 μL/well of the above diluted compound solutions or compound dilution buffer to the above assay plate.
(§6) Add 2 μL/well of 300 nM TNKS stock solution (4) to every well in the above assay plate.
Centrifuge the assay plate at 2100 rpm for 2 minutes.
(§7) Incubate the assay plate at 26° C. for 30 minutes.
(§8) Incubate the assay plate at 26° C. for 60 minutes.

tankyrase 2 (His6-TNKS2) = molecular target: T2, tankyrase 2 (His6-TNKS2) (Homo sapiens, UniProt Q9H2K2); test: μHTS-TNKS-IWR2 TR-FRET binding assay with His6-TNKS2 in place of TNKS1; conditions: Table I
T2 construct: His6-tankyrase 2 (construct: 934-1166)
Method: as §1, §2
(§9) Alternatively, in place of His6-TNKS1 can use either His6-tankyrase 2 (construct: 934-1166) (His6-TNKS2) or His6-PARP1 (full length).
as §3
Positive control: 10 mM XAV 939 in DMSO, stored at −20° C.
(§10) Prepare Biotinylated IWR2 stock solution (3.33× stock) for TOTL and cpd wells: 200 nM Biotin-IWR2 in 5% DMSO/AB1b buffer
(§11) Prepare POSITIVE CONTROL well stock solution (3.33× stock): 200 nM XAV939 in 200 nM Biotin-IWR2/5% DMSO/AB1b buffer
(§12) (Alternatively, use TNKS2 or PARP1 stock solutions.)
(§13) Prepare Eu/APC stock solution (5× stock): 3.5 nM Eu-SA/50 nM APC-His6Ab in AB2 buffer
(§14) Add 25 μL/well 1.5% DMSO/AB1c buffer in each compound well to the compound concentration at 74 μM in 8.8% DMSO/AB1c buffer or in the 2 μL DMSO CONTROL wells (BLANK, TOTAL and POSITIVE wells) in the compound plate.
as §4, §5, §6, §7, §8
(§15) Read the assay plate immediately at excitation wavelength of 330 nm and emission wavelength of […] in time resolved fluorescence mode.
(§16) Representative compound data for assays are listed below in Table I. Values are in uM.

[1] = molecular target: T3, PARP1 (His6-PARP1, full length) (Homo sapiens, UniProt P09874); test: μHTS-TNKS-IWR2 TR-FRET binding assay with His6-PARP1 in place of TNKS1; conditions: Table I
T3 construct: His6-PARP1 (full length)
Method: as §1, §2, §9, §3
Positive control: 10 mM […] in DMSO, stored at −20° C.
as §10, §11, §12, §13, §14, §4, §5, §6, §7, §8, §15, §16

T3 sequence (P09874 whole entry): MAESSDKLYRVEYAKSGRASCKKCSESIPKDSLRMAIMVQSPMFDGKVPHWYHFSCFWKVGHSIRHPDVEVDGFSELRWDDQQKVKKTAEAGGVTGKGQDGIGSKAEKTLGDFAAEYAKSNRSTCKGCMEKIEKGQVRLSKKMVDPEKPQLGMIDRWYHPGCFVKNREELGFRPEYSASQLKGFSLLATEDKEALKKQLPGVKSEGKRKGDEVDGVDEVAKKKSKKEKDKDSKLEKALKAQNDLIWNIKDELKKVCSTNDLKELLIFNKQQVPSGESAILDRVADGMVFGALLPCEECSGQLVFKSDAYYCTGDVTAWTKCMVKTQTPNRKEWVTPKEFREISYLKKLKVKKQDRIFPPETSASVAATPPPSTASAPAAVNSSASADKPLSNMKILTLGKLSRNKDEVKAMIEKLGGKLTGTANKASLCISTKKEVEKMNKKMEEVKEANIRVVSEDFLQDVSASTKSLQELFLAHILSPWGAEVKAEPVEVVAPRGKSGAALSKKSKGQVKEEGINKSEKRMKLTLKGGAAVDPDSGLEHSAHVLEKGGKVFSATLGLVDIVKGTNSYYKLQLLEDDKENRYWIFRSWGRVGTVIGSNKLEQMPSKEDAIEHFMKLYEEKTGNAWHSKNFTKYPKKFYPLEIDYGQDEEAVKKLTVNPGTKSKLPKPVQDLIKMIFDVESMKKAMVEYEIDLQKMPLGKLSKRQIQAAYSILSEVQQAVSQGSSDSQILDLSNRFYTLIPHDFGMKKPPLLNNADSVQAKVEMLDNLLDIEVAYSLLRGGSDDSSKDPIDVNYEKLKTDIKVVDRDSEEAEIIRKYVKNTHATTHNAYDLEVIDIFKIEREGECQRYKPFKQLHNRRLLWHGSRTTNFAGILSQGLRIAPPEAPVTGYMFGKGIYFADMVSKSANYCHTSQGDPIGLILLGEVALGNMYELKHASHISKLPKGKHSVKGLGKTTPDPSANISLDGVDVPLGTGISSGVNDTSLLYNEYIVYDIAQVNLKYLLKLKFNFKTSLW
T2 sequence (Q9H2K2 934-1166): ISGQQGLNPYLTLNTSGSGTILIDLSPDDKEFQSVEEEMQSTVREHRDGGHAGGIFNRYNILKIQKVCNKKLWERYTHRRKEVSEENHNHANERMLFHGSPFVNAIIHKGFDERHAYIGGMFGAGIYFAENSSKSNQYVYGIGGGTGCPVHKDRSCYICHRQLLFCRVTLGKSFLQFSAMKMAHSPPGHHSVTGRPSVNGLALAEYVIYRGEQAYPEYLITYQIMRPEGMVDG
T1 sequence (O95271 1088-1327): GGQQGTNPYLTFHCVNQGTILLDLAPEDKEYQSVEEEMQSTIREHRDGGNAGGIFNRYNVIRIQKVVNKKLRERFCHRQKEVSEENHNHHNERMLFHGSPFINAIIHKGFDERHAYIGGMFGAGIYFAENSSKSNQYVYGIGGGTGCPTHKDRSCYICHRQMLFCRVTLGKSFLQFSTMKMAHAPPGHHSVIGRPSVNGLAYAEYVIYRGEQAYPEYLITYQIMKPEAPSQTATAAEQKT

Compound	IC50 (Tankyrase 1 (TNKS1)) [nM]	IC50 (tankyrase 2 (His6-TNKS2)) [nM]	IC50 [1] [nM]
Cn1ccc2c(=O)[nH]c(N3CCN(c4ccncc4)CC3)nc21 [Example 1, 7-Methyl-2-(4-pyridin-4-yl-piperazin-1-yl)-3,7-dihydro-pyrrolo[2,3-d]pyrimidin-4-one]	722	593	143
CCOC(=O)c1ccc(N2CCN(c3nc4c(ccn4C)c(=O)[nH]3)CC2)cc1 [Example 2, Ethyl 4-(4-(7-methyl-4-oxo-4,7-dihydro-3H-pyrrolo[2,3-d]pyrimidin-2-yl)piperazin-1-yl)benzoate]	70	66	564
Cn1ccc2c(=O)[nH]c(N3CCN(c4ccc(Cl)cc4)CC3)nc21 [Example 3, 2-[4-(4-Chloro-phenyl)-piperazin-1-yl]-7-methyl-3,7-dihydro-pyrrolo[2,3-d]pyrimidin-4-one]	42	51	1060
Cn1ccc2c(=O)[nH]c(N3CCN(c4ccccn4)CC3)nc21 [Example 4, 7-Methyl-2-(4-pyridin-2-yl-piperazin-1-yl)-3,7-dihydro-pyrrolo[2,3-d]pyrimidin-4-one]	134	118	437
Cn1ccc2c(=O)[nH]c(N3CCN(c4ccc(F)cc4S(C)(=O)=O)CC3)nc21 [Example 5, 2-[4-(4-Fluoro-2-methanesulfonyl-phenyl)-piperazin-1-yl]-7-methyl-3,7-dihydro-pyrrolo[2,3-d]pyrimidin-4-one]	30	35	1180
Cn1ccc2c(=O)[nH]c(N3CCN(c4ncccc4C(F)(F)F)CC3)nc21 [Example 6, 7-Methyl-2-[4-(3-trifluoromethyl-pyridin-2-yl)-piperazin-1-yl]-3,7-dihydro-pyrrolo[2,3-d]pyrimidin-4-one]	34	36	2210
Cn1ccc2c(=O)[nH]c(N3CCN(c4cc(Cl)cc(Cl)c4)CC3)nc21 [Example 7, 2-[4-(3,5-Dichloro-phenyl)-piperazin-1-yl]-7-methyl-3,7-dihydro-pyrrolo[2,3-d]pyrimidin-4-one]	494	405	> 50000
Cn1ccc2c(=O)[nH]c(N3CCN(c4ncccn4)CC3)nc21 [Example 8, 7-Methyl-2-(4-pyrimidin-2-yl-piperazin-1-yl)-3,7-dihydro-pyrrolo[2,3-d]pyrimidin-4-one]	190	143	339
Cn1ccc2c(=O)[nH]c(N3CCN(c4ncccc4C#N)CC3)nc21 [Example 9, 2-[4-(7-Methyl-4-oxo-4,7-dihydro-3H-pyrrolo[2,3-d]pyrimidin-2-yl)-piperazin-1-yl]-nicotinonitrile]	70	63	618
Cn1ccc2c(=O)[nH]c(N3CCN(c4nccnc4C#N)CC3)nc21 [Example 10, 4-(7-Methyl-4-oxo-4,7-dihydro-3H-pyrrolo[2,3-d]pyrimidin-2-yl)-3,4,5,6-tetrahydro-2H-[1,2]bipyrazinyl-3′-carbonitrile]	111	121	603
CN1CCN(c2nc3c(ccn3C)c(=O)[nH]2)CC1 [Example 11, 7-Methyl-2-(4-methyl-piperazin-1-yl)-3,7-dihydro-pyrrolo[2,3-d]pyrimidin-4-one]	358	285	471
Cn1ccc2c(=O)[nH]c(N3CCOCC3)nc21 [Example 12, 7-Methyl-2-morpholin-4-yl-3,7-dihydro-pyrrolo[2,3-d]pyrimidin-4-one]	1910	1830	1720
Cn1ccc2c(=O)[nH]c(N3CCN(S(C)(=O)=O)CC3)nc21 [Example 13, 2-(4-Methanesulfonyl-piperazin-1-yl)-7-methyl-3,7-dihydro-pyrrolo[2,3-d]pyrimidin-4-one]	112	126	604
CC(=O)N1CCN(c2nc3c(ccn3C)c(=O)[nH]2)CC1 [Example 14, 2-(4-Acetyl-piperazin-1-yl)-7-methyl-3,7-dihydro-pyrrolo[2,3-d]pyrimidin-4-one]	466	427	229
Cn1ccc2c(=O)[nH]c(N3CC(C)(c4ccc(Br)cc4)C3)nc21 [Example 15, 2-[3-(4-Bromo-phenyl)-3-methyl-azetidin-1-yl]-7-methyl-3,7-dihydro-pyrrolo[2,3-d]pyrimidin-4-one]	348	192	3460
Cn1ccc2c(=O)[nH]c(N3CCC(c4ccccc4)C3)nc21 (stereo not drawn) [Example 16, 7-Methyl-2-(3-phenyl-pyrrolidin-1-yl)-3,7-dihydro-pyrrolo[2,3-d]pyrimidin-4-one]	915	1070	1260
Cn1ccc2c(=O)[nH]c(N3CCN(c4ccc(F)cc4)CC3)nc21 [Example 17, 2-[4-(4-Fluoro-phenyl)-piperazin-1-yl]-7-methyl-3,7-dihydro-pyrrolo[2,3-d]pyrimidin-4-one]	27	32	1080
Cn1ccc2c(=O)[nH]c(N3CCN(c4cccc(F)c4)CC3)nc21 [Example 18, 2-[4-(3-Fluoro-phenyl)-piperazin-1-yl]-7-methyl-3,7-dihydro-pyrrolo[2,3-d]pyrimidin-4-one]	59	59	758
Cn1ccc2c(=O)[nH]c(N3CCN(c4ccccc4C#N)CC3)nc21 [Example 19, 2-[4-(7-Methyl-4-oxo-4,7-dihydro-3H-pyrrolo[2,3-d]pyrimidin-2-yl)-piperazin-1-yl]-benzonitrile]	43	34	1050
Cn1ccc2c(=O)[nH]c(N3CCN(c4ccc(F)cc4F)CC3)nc21 [Example 20, 2-[4-(2,4-Difluoro-phenyl)-piperazin-1-yl]-7-methyl-3,7-dihydro-pyrrolo[2,3-d]pyrimidin-4-one]	31	36	1220
Cn1ccc2c(=O)[nH]c(N3CCN(c4cccc(C#N)c4)CC3)nc21 [Example 21, 3-[4-(7-Methyl-4-oxo-4,7-dihydro-3H-pyrrolo[2,3-d]pyrimidin-2-yl)-piperazin-1-yl]-benzonitrile]	81	90	612
Cn1ccc2c(=O)[nH]c(N3CCN(c4ccc(C#N)cc4)CC3)nc21 [Example 22, 4-[4-(7-Methyl-4-oxo-4,7-dihydro-3H-pyrrolo[2,3-d]pyrimidin-2-yl)-piperazin-1-yl]-benzonitrile]	97	74	453
Cn1ccc2c(=O)[nH]c(N3CCN(c4ccccc4C(F)(F)F)CC3)nc21 [Example 23, 7-Methyl-2-[4-(2-trifluoromethyl-phenyl)-piperazin-1-yl]-3,7-dihydro-pyrrolo[2,3-d]pyrimidin-4-one]	28	31	42100
Cn1ccc2c(=O)[nH]c(N3CCN(c4ccc(S(C)(=O)=O)cc4F)CC3)nc21 [Example 24, 2-[4-(2-Fluoro-4-methanesulfonyl-phenyl)-piperazin-1-yl]-7-methyl-3,7-dihydro-pyrrolo[2,3-d]pyrimidin-4-one]	35	47	1280
Cn1ccc2c(=O)[nH]c(N3CCN(c4cc(C(F)(F)F)ccn4)CC3)nc21 [Example 25, 7-Methyl-2-[4-(4-trifluoromethyl-pyridin-2-yl)-piperazin-1-yl]-3,7-dihydro-pyrrolo[2,3-d]pyrimidin-4-one]	292	200	557
